Measured values reported in patent US9880171B2, “iASPP phosphorylation and metastatic potential” (LUDWIG INSTITUTE FOR CANCER RESEARCH LTD., priority 2012, dated 2018).

What was measured:
[1] = test system: WM278, Me300 and SK-MEL37 melanoma cells; assay: apoptosis by Annexin V / Sub-G1 FACS analysis, Example 10, human melanoma cells; format: cell-based; conditions: for apoptosis: agent alone, JNJ 0.4 μM, Nutlin3 10-20 μM, 72 hours, melanoma cell lines
Experimental: (§1) FIG. 20. Restoring p53 by inhibiting mdm2 and iASPP suppresses melanoma growth in vitro and in vivo. FIG. 20A. H1299 cells were treated with DMSO or 10 μM nocodazole in the presence or absence of 2 or 10 μM of mitosis-related kinase inhibitors as indicated. […] FIG. 20B. Left panel: representative p53 level after Nutlin3 treatment for 24 hours in a variety of cells. Right bar graphs show the sub-G1 proportion of WM278 after treatment as that described in FIG. 19B (in upper panel, 10 μM and 20 μM Nutlin3 were used in parallel for comparison). From left to right of the upper right bar graph of FIG. 20B, the bars correspond to DMSO, Nut and JNJ+Nut, respectively. From left to right of the bottom bar graph of FIG. 20B, the bars correspond to DMSO, JNJ, Nut and JNJ+Nut, respectively. FIG. 20C. Me300, SK-MEL37, and B16 cells were treated as above (For B16 panel, 10 μM Nutlin3 was used) and sub-G1 proportion was analyzed. In (B) and (C), the bar graphs (mean±SD) were derived from three independent experiments. *p<0.05. FIG. 20D. Left panel: untreated B16 cells were subcutaneously injected into mice at day 1. […] Compound administration and tumor size measurement were repeated every two days from day 7 onwards. Bar graphs are shown as mean±SD (*p<0.05, n=6). FIG. 20E. Lower panels show representative images of isolated tumors. Right panel: representative H & E staining in B16 tumor section. Bar=20 μm.
FIG. 21. Restoring apoptotic function of p53 cooperates with BRAFV600E inhibition to suppress human melanoma cell growth.

[2] = test system: WM278, Me300 and SK-MEL37 melanoma cells; assay: colony formation assay, Example 10, human melanoma cells; format: cell-based; conditions: agent alone; melanoma cell lines
Excerpt: FIG. 21. Restoring apoptotic function of p53 cooperates with BRAFV600E inhibition to suppress human melanoma cell growth. […] The bar graphs (mean±SD) were derived from three independent experiments. *p<0.05. Lower images show representative Annexin V/7-AAD profile and dishes, respectively. FIG. 21C. Diagrams showing how cyclinB1/cdk1 phosphorylation controls iASPP localization in interphase (interphase) or mitosis or tumor cells (mitosis/melanomas). Blue and red stars (*) indicate the C- and N-terminal contact residues and the phosphorylation status is labeled as (P). The bottom diagram summarizes the pathways that PLX4032, Nutlin3 and JNJ used to suppress melanoma cell growth.

B16 melanoma cells = assay: xenograft assay, B16 cells treated in vitro and injected into C57BL/6 mice; format: in vivo; conditions: 13 days after injection of in vitro treated B16 cells
Experimental: At day 1, C57BL/6 mice (7-9 weeks old) were injected s.c. at flanks with 1×10^6 B16 melanoma cells in 100 μl PBS (component treated cells for FIG. 19C, untreated cells for FIGS. 19D and 20D). Component (Nutlin3 (40 mg/kg) or JNJ-7706621 (also referred to herein as “JNJ”, 30 mg/kg)) was dissolved in DMSO and i.p. administered every two days since day 3, or day 7 (no component administration for FIG. 19C). Tumor size was measured every two days with vernier caliper. Tumor volumes were calculated using the following formula: (L*W*W)/2, in which L represents the larger diameter of the tumor, and W represents the smaller diameter. On day 13 (tumor area reach ˜1.2 cm diameter in DMSO group), all mice were sacrificed and tumors were isolated and weighed.
Mouse B16 melanoma cells are known to form highly aggressive melanoma in vivo in immune competent C57BL/6 syngeneic mice. Because regulation of p53 by iASPP and mdm2 exists in both human WM278 cells and mouse B16 cells, experiments were carried out to determine if restoring p53 function in B16 cells is able to suppress tumor growth in C57BL/6 mice in vivo. B16 cells, treated with (1) DMSO, (2) Nutlin3, (3) JNJ, or (4) Nutlin3+JNJ, were injected into the flank of 7-9 week-old female C57BL/6 mice.

B16 melanoma = assay: xenograft assay, untreated B16 cells, compounds given i.p.; format: in vivo, C57BL/6 mice; set-up: concentration or dose not given beside the values
Experimental: as §1
At day 1, C57BL/6 mice (7-9 weeks old) were injected s.c. at flanks with 1×10^6 B16 melanoma cells in 100 μl PBS (component treated cells for FIG. 19C, untreated cells for FIGS. 19D and 20D).

[3] = test system: nuclear iASPP and p53 in B16 tumors; assay: immunofluorescence staining of iASPP and p53 in B16 tumor sections; format: in vivo, C57BL/6 mice; conditions: tumor sections from i.p. treated mice
[4] = test system: WM278, Me300 and SK-MEL37 melanoma cell lines; assay: p53-dependent apoptosis assay (subG1 DNA content, PI/FACS), Example 8; format: cell-based, human; conditions: 0.3 μM K00616a, 20 μM nutlin3, 1 μM PLX4032, agent alone, 72 hours
Experimental: Cells were transfected with siRNA as shown and pre-seeded on 6 well plates ON, 0.3 μM cyclin B1/cdk1 inhibitors K00616a were then added for 48 hours to block iASPP modification. Cells were then treated with 0.3 μM K00616a, 20 μM nutlin3, or combinations of these drugs for another 72 hours. Cells were collected and cell cycle status, growth potential, and protein expression pattern were then determined by PI staining/FACS analysis, colony formation assay, and WB, respectively. […] Cells were pre-seeded on 6 well plates for overnight, 0.3 μM cyclin B1/cdk1 inhibitors K00616a were then added for 48 hours to block iASPP modification. Cells were then treated with 0.3 μM K00616a, 20 μM nutlin3, 1 μM PLX4032, or combinations of these drug for another 72 hours. Cells were collected and cell cycle status, growth potential, and protein expression pattern were then determined by PI staining/FACS analysis, colony formation assay, and WB, respectively.
Cells were harvested, washed and fixed in ice-cold 70% EtOH. […] After 30 min RT incubation cells were analyzed by flow cytometry.
WM278 and Me300 also express wild type p53, whereas SK-MEL37 expresses mutant p53. […] Wild type p53 function was measured by a p53-dependent apoptosis assay, detecting the percentage of cells containing subG1 DNA content and growth suppression in a clonogenic survival assay.

[5] = i.p. administration from day 3 after B16 inoculation
[6] = i.p. administration from day 7 after B16 inoculation

| SMILES | increase in Nutlin3-induced apoptosis ([1]; Me300 and WM278 cells, Annexin V or Sub-G1) | apoptosis [1] | suppression of cell growth [2] | tumor size and weight, of control (DMSO-treated B16 cell group) (B16 melanoma cells) | suppression of B16 melanoma growth (B16 melanoma; [5]) [%] | suppression of B16 melanoma growth (B16 melanoma; [6]) [%] | iASPP expression in B16 tumors [3] | p53 expression in B16 tumors [3] | apoptotic cell death (subG1) [4] |
| --- | --- | --- | --- | --- | --- | --- | --- | --- | --- |
| Nc1nc(Nc2ccc(S(N)(=O)=O)cc2)nn1C(=O)c1c(F)cccc1F [JNJ-7706621] | 3-4 fold | only a small percentage of cells | limited | around 40% | 36 | 30 | clearly reduced nuclear iASPP expression | no effect on p53 expression | – |
| COc1ccc(C2=N[C@@H](c3ccc(Cl)cc3)[C@@H](c3ccc(Cl)cc3)N2C(=O)N2CCNC(=O)C2)c(OC(C)C)c1 [Nutlin3] | – | only a small percentage of cells | limited | ~60% | 22 | 5 | minimal impact on iASPP expression | induced nuclear p53 expression | very low rates of apoptotic cell death |
